Measured values: US8133881B2, “Carbohydrate conjugates to prevent abuse of controlled substances” (Shire LLC, priority 2003, dated 2012)

Columns and labels:
[1] = Intranasal bioavailability of Hydrocodone vs. Galactose Hydrocodone
[2] = Oral bioavailability of Hydrocodone vs. Galactose-Hydrocodone
[3] = Intravenous bioavailability of Hydrocodone vs. Ribose Hydrocodone
[4] = Kitchen test stability of conjugate (release of hydrocodone on heating in pH solutions); type: physicochemical; conditions: for Percent Hydrocodone released: 80-90° C.
Protocol: To determine the accessibility of active narcotic from the synthetic conjugates, an attempt was made to release the narcotic from its conjugate. In a kitchen test, we determined the stability of the conjugates when subjected to conditions that would be available to any drug addict. Thus, the kitchen test is a model of “street-safeness” for the narcotics conjugates. The conjugates were heated in a water bath (80-90° C.) in a pH range (1-12) over a 1 hour time course. This pH range constitutes about any solution that can be found commercially at any grocery or drug store. The release of the narcotic from the conjugate was monitored by HPLC and quantified with a dose-response calibration curve of the parent narcotic.
Using only solutions that would be available to an addict, conjugates were dissolved in water. Water insoluble conjugates were either (a) dissolved in a minimum amount (≦5% v/v) of organic solvent [e.g., DMSO, methanol, or ethanol], (b) added as a suspension to the assay, or (c) dissolved completely in chloroform, and aliquoted to a test tube where the chloroform is evaporated, leaving only a known amount of conjugate. Upon preparation of the conjugate, the conjugate is added to the various pH solutions and heated for 0, 5, 15, or 60 minutes. At the indicated time point, each test tube was removed from the water bath and neutralized with a chilled phosphate buffer (100 mM, pH 7, 4° C.).
The kitchen test proceeds as follows: • 1. pH solutions [1, 4, 7, 9, 12] prepared with HPLC grade H2O and titrated with NaOH or HCl • 2. prepare hot water bath, keeping temperature at 80-90° C. • 3. conjugates prepared at a concentration of 1 mg/ml as indicated above • 4. 250 μl of conjugate added to 750 μl of pH solutions (final assay volume is 1 ml; if conjugate has been evaporated from CHCl3, add 1 ml of pH solution to test tube) • 5. immediately following the addition of conjugate to pH solution, place test tube in hot water bath (80-90° C.) • 6. at indicated time point, remove test tubes from heat and neutralize with 1 ml of chilled phosphate buffer [0 time point is not heated, but immediately neutralized with phosphate buffer after the addition of conjugate to each pH solution] • 7. before aliquoting each sample for HPLC analysis, the volume of each tube is adjusted to 2 ml to account for changes in concentration from evaporation
Following HPLC analysis, the amount of released narcotic was extrapolated from a calibration curve of the parent drug and plotted as % narcotic released (w/w, based upon theoretical loading of conjugated species) vs. time.

[5] = Intranasal bioavailability of Hydrocodone vs. Ribose Hydrocodone
[6] = Oral bioavailability of Hydrocodone vs. Ribose-Hydrocodone (serum levels)

Question: With `COc1ccc2c3c1OC1C(OC(=O)OC[C@H]4O[C@H](O)[C@H](O)[C@@H](O)[C@H]4O)=CCC4[C@@H](C2)[N@@H+](C)CC[C@]314.[Cl-]` (some centres unmarked) [Galactose-Hydrocodone, Galacto-Hydrocodone] as the molecule, how does the “Bioavailability compared to Hydrocodone-Bitartarate” value [1] read?
Answer: marginally decreased

Question: And the “Bioavailability compared to Hydrocodone-Bitartarate” value [2]?
Answer: approached that of Hydrocodone-Bitaratarate

Question: With `COc1ccc2c3c1OC1C(OC(=O)OC[C@H]4OC(O)C(O)[C@H]4O)=CCC4[C@@H](C2)[N@@H+](C)CC[C@]314.[Cl-]` (some centres unmarked) [Ribose-Hydrocodone, Ribo-Hydrocodone] as the molecule, how does the “Bioavailability compared to Hydrocodone-Bitartarate” value [3] read?
Answer: decreased

Question: And the “clearance rate” value [3]?
Answer: increased clearance rate

Question: And the “Percent Hydrocodone released” value ([4]; pH 1, 5 minutes, relative to zero hour level of free Hydrocodone)?
Answer: 8%

Question: What about the “Percent Hydrocodone released” value ([4]; pH 1, 15 minutes, relative to zero hour level) of the same molecule?
Answer: 18%

Question: And the “Percent Hydrocodone released” value ([4]; pH 1, 60 minutes, relative to zero hour level)?
Answer: 27.8%

Question: What about the “Percent Hydrocodone released” value ([4]; pH 4, 5 minutes, relative to zero hour level) of the same molecule?
Answer: 11%

Question: What about the “Percent Hydrocodone released” value ([4]; pH 4, 15 minutes, relative to zero hour level) of the same molecule?
Answer: 12.6%

Question: And the “Percent Hydrocodone released” value ([4]; pH 4, 60 minutes, relative to zero hour level)?
Answer: 19.6%

Question: What about the “Percent Hydrocodone released” value ([4]; pH 7, 5 minutes, relative to zero hour level) of the same molecule?
Answer: 12%

Question: And the “Percent Hydrocodone released” value ([4]; pH 7, 15 minutes, relative to zero hour level)?
Answer: 16%

Question: And the “Percent Hydrocodone released” value ([4]; pH 7, 60 minutes, relative to zero hour level)?
Answer: 23.4%

Question: What about the “Percent Hydrocodone released” value ([4]; pH 9, 5 minutes, relative to zero hour level) of the same molecule?
Answer: 9%

Question: What about the “Percent Hydrocodone released” value ([4]; pH 9, 15 minutes, relative to zero hour level) of the same molecule?
Answer: 11%

Question: And the “Percent Hydrocodone released” value ([4]; pH 9, 60 minutes, relative to zero hour level)?
Answer: 21%

Question: And the “hydrocodone released from the conjugate” value ([4]; pH 12)?
Answer: less than half

Question: And the “Percent Hydrocodone released” value ([4]; pH 12, 5 minutes, relative to zero hour level)?
Answer: 44%

Question: What about the “Percent Hydrocodone released” value ([4]; pH 12, 15 minutes, relative to zero hour level) of the same molecule?
Answer: 33%

Question: What about the “Percent Hydrocodone released” value ([4]; pH 12, 60 minutes, relative to zero hour level) of the same molecule?
Answer: 41.1%

Question: What about the “amount of hydrocodone released” value ([4]; pHs other than pH 12, after one hour at 90° C.) of the same molecule?
Answer: ≤ 27.8%

Question: And the “Bioavailability compared to Hydrocodone-Bitartarate” value [5]?
Answer: decreased

Question: And the “Bioavailability compared to Hydrocodone-Bitartarate” value [6]?
Answer: approximately equal
